Data taken from article PMC10533412, “Phosphoantigens glue butyrophilin 3A1 and 2A1 to activate Vγ9Vδ2 T cells” (Nature, 2023).
“And” between values parts separate entries of the source, which are not always exact repeats. Equal values may be shown once.

Tests used:
BTN3A3(R351H) B30.2 = target: T1, BTN3A3(R351H) B30.2 (Homo sapiens, UniProt O00478); assay: ITC: HMBPP binding to BTN3A3(R351H) B30.2
T1 construct: the B30.2 domain of this active mutant (BTN3A3(R351H))
Description: ITC binding fits were calculated using MicroCal Analysis software.

VpBTN3 BFI = VpBTN3 BFI (Vicugna pacos, UniProt A0A345DF50); assay: ITC: pAg binding to VpBTN3 BFI; set-up: species or system alpaca (Vicugna pacos); conditions: ITC; read-out: KD, pAg binding to VpBTN3 intracellular domain (BFI)
Description: (§1) ITC experiments were performed using the MicroCal PEAQ-ITC instrument (GE Healthcare) at 25 °C. We used an initial injection of 0.4 μl followed by 19 injections (2 µl each) at 150 s time intervals. ITC binding fits were calculated using MicroCal Analysis software. The samples were prepared using a buffer (20 mM HEPES pH 7.5, 150 mM NaCl).
ITC experiments of HMBPP, DMAPP or IPP binding to the VpBTN3 BFI (or the preconditioned VpBTN3 BFI and VpBTN2 BFI complex) and VpBTN2 BFI (or VpBTN1 BFI) binding to VpBTN3 BFI in the presence of HMBPP, DMAPP or IPP were performed according to the same procedures as for the BTN3A1 B30.2 and BTN2A1 B30.2.

BTN2A1 B30.2 domain = BTN2A1 B30.2 domain (Homo sapiens, UniProt Q7KYR7); conditions: ITC
Description: as §1

Vγ9Vδ2 T cells = conditions: cited from earlier work
[1] = system: BTN2A−/− MIA PaCa-2 (BTN2A1/BTN2A2 KO) cells; assay: Cell killing assay with BTN2A−/− MIA PaCa-2 (BTN2A1/BTN2A2 KO) cells expressing BTN2A1/BTN2A2 variants; conditions: for cell killing, Means, Fig. 6e: N 4; for cell killing, single replicate, Fig. 6e: listed as HMBPP
Description: MIA PaCa-2 cells were infected with lentivirus bearing luciferase transgene. Luciferase-positive cells were plated at 5.0 × 10^3 cells per well in 384-well plates 1 day before transfection. All plasmids were transfected into BTN2A^−/− MIA PaCa-2 (BTN2A1/BTN2A2 KO) cells using Lipofectamine 2000 reagent. […] Stable-lite luciferase (Vazyme) was added to each well and the luciferase signal was immediately measured by using the PerkinElmer EnVision microplate reader.
Percentage of lysis was calculated using the following equation: percentage of specific lysis = (maximum luciferase − experimental luciferase)/maximum luciferase × 100.

[2] = 0.1 μM, cells expressing 2A1 (full)
[3] = 0.1 μM, cells expressing 2A2 B30.2 W374R/M506T (with 2A1 other segments)
[4] = 0.1 μM, cells expressing 2A2 W374R/M506T (with 2A1 EC)
[5] = 0.1 μM, cells expressing 2A2 W374R/M506T (wtih 2A1 JM)
[6] = 0.1 μM, cells expressing 2A2 W374R/M506T
[7] = 1 μM, cells expressing 2A1 (full)
[8] = 1 μM, cells expressing 2A2 B30.2 W374R/M506T (with 2A1 other segments)
[9] = 1 μM, cells expressing 2A2 W374R/M506T (with 2A1 EC)
[10] = 1 μM, cells expressing 2A2 W374R/M506T (wtih 2A1 JM)
[11] = 1 μM, cells expressing 2A2 W374R/M506T
[12] = 10 μM, cells expressing 2A1 (full)
[13] = 10 μM, cells expressing 2A2 B30.2 W374R/M506T (with 2A1 other segments)
[14] = 10 μM, cells expressing 2A2 W374R/M506T (with 2A1 EC)
[15] = 10 μM, cells expressing 2A2 W374R/M506T (wtih 2A1 JM)
[16] = 10 μM, cells expressing 2A2 W374R/M506T
[17] = 2A1 WT, source data Ext. Fig. 3c
[18] = 2A1 ∆C, source data Ext. Fig. 3c
[19] = Ext. Fig. 6d, cells expressing 2A1 WT, three-parameter fit
[20] = Ext. Fig. 6d, cells expressing 2A2 G352Y354QR/M506T/W374R, three-parameter fit
[21] = Ext. Fig. 6d, cells expressing 2A2 G352Y354QR, three-parameter fit
[22] = Ext. Fig. 6d, cells expressing 2A2 M506T, three-parameter fit

BTN2A1 B30.2 domain, sequence (Q7KYR7 316-527 limits assumed): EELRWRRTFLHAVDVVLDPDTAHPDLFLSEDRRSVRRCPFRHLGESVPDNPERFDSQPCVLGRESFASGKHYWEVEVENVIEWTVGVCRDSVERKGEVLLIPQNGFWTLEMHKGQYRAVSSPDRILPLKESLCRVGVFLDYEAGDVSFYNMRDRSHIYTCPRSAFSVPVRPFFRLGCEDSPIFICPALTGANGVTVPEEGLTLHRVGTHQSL
VpBTN3 BFI, sequence (A0A345DF50 entry or part of it): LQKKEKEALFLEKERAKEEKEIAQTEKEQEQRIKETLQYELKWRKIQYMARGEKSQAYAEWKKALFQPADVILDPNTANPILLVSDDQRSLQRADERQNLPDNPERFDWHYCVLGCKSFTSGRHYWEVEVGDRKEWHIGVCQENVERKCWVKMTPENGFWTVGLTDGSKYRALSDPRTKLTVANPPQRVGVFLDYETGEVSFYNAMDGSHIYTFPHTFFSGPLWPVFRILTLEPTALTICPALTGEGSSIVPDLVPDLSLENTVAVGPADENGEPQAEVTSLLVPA
T1 sequence (O00478 322-518 R381H): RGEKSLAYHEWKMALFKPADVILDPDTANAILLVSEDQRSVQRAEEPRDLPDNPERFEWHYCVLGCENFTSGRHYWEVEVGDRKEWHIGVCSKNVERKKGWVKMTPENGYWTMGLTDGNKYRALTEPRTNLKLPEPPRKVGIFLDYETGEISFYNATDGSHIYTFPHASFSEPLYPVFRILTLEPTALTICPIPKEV

Structure (SMILES): C/C(=C\COP(=O)(O)OP(=O)(O)O)CO [Compound 1, (E)-4-hydroxy-3-methylbut-2-en-1-yl diphosphate]
- Kd (BTN3A3(R351H) B30.2): 10.9 µM
- Kd (VpBTN3 BFI): 1370 nM
- HMBPP binding to BTN2A1 B30.2 domain (BTN2A1 B30.2 domain): does not bind
- EC50 for Vγ9Vδ2 T cell activation (Vγ9Vδ2 T cells): picomolar range
- cell killing, Means, Fig. 6e ([1]; 0.1 μM, NT cells): 15.31
- cell killing, single replicate, Fig. 6e ([1]; 0.1 μM, NT cells): 16.9534 and 12.1556 and 17.488 and 14.6256
- cell killing, Means, Fig. 6e [1, 2]: 43.2
- cell killing, single replicate, Fig. 6e [1, 2]: 41.0547 and 41.9242 and 44.3091 and 45.5217
- cell killing, Means, Fig. 6e [1, 3]: 37.63
- cell killing, single replicate, Fig. 6e [1, 3]: 30.7526 and 48.9339 and 41.228 and 29.5964
- cell killing, Means, Fig. 6e [1, 4]: 10.65
- cell killing, single replicate, Fig. 6e [1, 4]: 10.0494 and 11.5088 and 9.171 and 11.8833
- cell killing, Means, Fig. 6e [1, 5]: 21.79
- cell killing, single replicate, Fig. 6e [1, 5]: 18.9096 and 21.2355 and 31.0049 and 16.0148
- cell killing, Means, Fig. 6e [1, 6]: 6.989
- cell killing, single replicate, Fig. 6e [1, 6]: 8.189 and 6.668 and 2.002 and 11.0964
- cell killing, Means, Fig. 6e ([1]; 1 μM, NT cells): 19.83
- cell killing, single replicate, Fig. 6e ([1]; 1 μM, NT cells): 17.72 and 22.5709 and 17.5879 and 21.4385
- cell killing, Means, Fig. 6e [1, 7]: 47.49
- cell killing, single replicate, Fig. 6e [1, 7]: 44.8999 and 44.0198 and 51.2118 and 49.8148
- cell killing, Means, Fig. 6e [1, 8]: 47.88
- cell killing, single replicate, Fig. 6e [1, 8]: 42.711 and 50.2729 and 52.3554 and 46.1815
- cell killing, Means, Fig. 6e [1, 9]: 18.17
- cell killing, single replicate, Fig. 6e [1, 9]: 13.1292 and 15.284 and 20.3978 and 23.864
- cell killing, Means, Fig. 6e [1, 10]: 29.03
- cell killing, single replicate, Fig. 6e [1, 10]: 27.7855 and 29.0017 and 26.4668 and 32.8608
- cell killing, Means, Fig. 6e [1, 11]: 15.67
- cell killing, single replicate, Fig. 6e [1, 11]: 11.4295 and 17.9078 and 14.2342 and 19.1099
- cell killing, Means, Fig. 6e ([1]; 10 μM, NT cells): 24.11
- cell killing, single replicate, Fig. 6e ([1]; 10 μM, NT cells): 29.5378 and 18.9356 and 23.5884 and 24.3846
- cell killing, Means, Fig. 6e [1, 12]: 46.91
- cell killing, single replicate, Fig. 6e [1, 12]: 43.2704 and 47.0695 and 47.7293 and 49.5621
- cell killing, Means, Fig. 6e [1, 13]: 46.58
- cell killing, single replicate, Fig. 6e [1, 13]: 39.3517 and 47.3098 and 45.3387 and 54.323
- cell killing, Means, Fig. 6e [1, 14]: 29.48
- cell killing, single replicate, Fig. 6e [1, 14]: 34.2513 and 25.8478 and 33.2665 and 24.5352
- cell killing, Means, Fig. 6e [1, 15]: 29.83
- cell killing, single replicate, Fig. 6e [1, 15]: 29.1476 and 34.1243 and 24.0842 and 31.9573
- cell killing, Means, Fig. 6e [1, 16]: 28.16
- cell killing, single replicate, Fig. 6e [1, 16]: 27.8321 and 21.0649 and 28.437 and 35.311
- Bottom, best-fit value, log(agonist) vs. response (three parameters) [1, 17]: 30.67
- LogEC50, best-fit value [1, 17]: -7.891
- Span (best-fit value) [1, 17]: 32.29
- Top, best-fit value, log(agonist) vs. response (three parameters) [1, 17]: 62.96
- Bottom, best-fit value, log(agonist) vs. response (three parameters) [1, 18]: 18.53
- LogEC50, best-fit value [1, 18]: -4.358
- Span (best-fit value) [1, 18]: 32.38
- Top, best-fit value, log(agonist) vs. response (three parameters) [1, 18]: 50.91
- Bottom (best-fit value) [1, 19]: 37.79
- Span (best-fit value) [1, 19]: 24.09
- Top (best-fit value) [1, 19]: 61.87
- Bottom (best-fit value) [1, 20]: 32.14
- Span (best-fit value) [1, 20]: 22.27
- Top (best-fit value) [1, 20]: 54.4
- Bottom (best-fit value) [1, 21]: 19.82
- Span (best-fit value) [1, 21]: 7.278
- Top (best-fit value) [1, 21]: 27.1
- Bottom (best-fit value) [1, 22]: 17.84
- Span (best-fit value) [1, 22]: 32.36
- Top (best-fit value) [1, 22]: 50.2
- Bottom (best-fit value) ([1]; Ext. Fig. 6d, cells expressing 2A2 W374R/M506T, three-parameter fit): 21.03
